# Test results as given in US12208093B2 (THE JOHNS HOPKINS UNIVERSITY, priority 2016, dated 2025).
# “Also recorded” adds a separate entry of the source. Where a name gives a salt, the structure may show the parent alone.
# What was measured:
# [1] = system: MDM2-IE2 interaction; assay: Co-immunoprecipitation of MDM2 and IE2 in transfected HEK293 cells; type: cell-based; conditions: HEK293 cells transfected with IE1/2; emetine 75 nM or GCV 5 μM, 4 h
# Description: Transient transfections. HEK-293 cells seeded into 10 cm petri dishes were transfected with HCMV plasmid encoding IE1 and IE2 (pRL45) plasmid, 1 μg/dish, using Lipofectamine 2000 in serum free medium. After 6 h, 10% FBS containing media was added along with 10 μM of MG132. […] Cells were then harvested to prepare lysates for IP.
# Co-immunoprecipitation (IP) and immunoblotting. Non-infected, infected or emetine-treated HFFs were treated with MG132 (10 μM) for 12 h. Cells were harvested after 24 hpi and lysed with IP buffer containing 150 mM NaCl, 50 mM Tris pH 7.5, 2 mM EDTA, 0.5% TritonX-100 and 0.5% NP-40-40. 1 mg of lysate was precleared with bead slurry for 30 min. The precleared lysates were incubated with anti-MDM2 (2 μg) antibody overnight. The antibody complexes were isolated using protein A/G beads (Santa Cruz), washed three times with 50% IP buffer. The immunoprecipitate—protein A/G beads were boiled in SDS sample buffer, and the supernatant was analyzed on SDS-PAGE gels after immunoblotting as described previously. […] Reverse IPs were performed by pulling down the precleared lysates with either anti-p53 antibody or anti-RPS14 antibody and detected with MDM2. […] In other experiments, transfected or treated HEK293 cell lysates were pulled-down with anti-IE2 antibody and detected with anti-MDM2 antibody and vice-versa for reverse IP.
# [2] = system: GCV-resistant pp28-luciferase HCMV (C607Y mutation in UL97); conditions: nM concentrations
# Description: Viruses. The pp28-luciferase HCMV Towne strain was constructed as previously described. A GCV-resistant pp28-luciferase HCMV strain, with a C607Y mutation in UL97 was also used. The recombinant viruses express luciferase under the control of the late CMV gene promoter, pp28. Luciferase expression is strongly activated 48-72 hours post infection (hpi). The recombinant viruses provide a highly-sensitive and reproducible reporter system which correlates with the classic plaque reduction assay.
# Cell culture, virus infection and anti-viral assays. Human Foreskin Fibroblasts (HFFs) passage 12-16 (ATCC, CRL-2088™) and mouse embryonic fibroblasts (MEFs) passage 9-14 (ATCC, CRL-1658™) were grown in Dulbecco's Modified Eagle Medium (DMEM) containing 10% fetal bovine serum (FBS) (Gibco, Carlsbad, CA) in a 5% CO2 incubator at 37° C. Infection with HCMV or HSV was performed in HFFs, and infection with mouse CMV was performed in MEFs. For HCMV, cells were seeded in either a 96-well plate or 100 mm culture plates (Corning Costar, Sigma Aldrich) at 0.5 or 2 million cells/plate. Following 90 minute adsorption, media was removed and cells were washed with PBS. Media containing 4% FBS and compounds were added to each well. […] Luciferase activity was measured 72 h following second cycle infection.
# [3] = system: HCMV Towne; assay: HCMV Towne plaque reduction assay in HFFs; type: cell-based, human cytomegalovirus (HCMV)
# Excerpt: (§1) Cell culture, virus infection and anti-viral assays.
# [4] = system: pp28-luciferase HCMV Towne; assay: Drug combination emetine + GCV, Bliss model; type: cell-based, human cytomegalovirus (HCMV); conditions: combined with ganciclovir (GCV), dihydrochloride hydrate
# Description: Drug combination. The combined inhibitory effect of compounds on HCMV replication was determined in infected HFFs. A dose response curve was first generated for each compound; the EC50 and slope were calculated. […] The Bliss model was used for quantification of the effect of two compounds on HCMV replication (40). In this model, drug combination represents the product of two probabilistically independent events as described in the following equation (41): […]
# The combined effect of two inhibitors (FU, fractional unaffected) is computed as the product of individual effects of the two inhibitors, FU1 and FU2. If the ratio of observed fold inhibition divided by the expected fold inhibition is greater than 1, the compounds are synergistic. If the ratio is less than 1, the combination is considered antagonistic, and if it equals to 1 the combination is additive.
# [5] = system: malaria; conditions: 17 patients; 40 mg IM x 6 daily doses; cited from earlier work
# [6] = system: pp28-luciferase HCMV Towne; assay: Second cycle luciferase assay; type: cell-based, human cytomegalovirus (HCMV); conditions: emetine 75 nM, vs infected control
# Excerpt: as §1
# [7] = molecular target: RPS14 (Homo sapiens, UniProt P62263); assay: Confocal microscopy of RPS14 localization; type: cell-based; conditions: 24 hpi; infected cells; emetine 75 nM
# Description: Confocal microscopy. […] Cells were fixed with 3.7% paraformaldehyde for 20 min at room temperature, permeabilized with ice cold methanol for 10 min at −20° C. and blocked with 5% bovine serum albumin in 0.5% Tween-20 for 20 min at room temperature. Cells were incubated with primary antibodies at 4° C. overnight, washed and incubated with fluorescently labeled secondary antibodies for 2 h at 37° C. Fluorescence microscopy was performed by using a confocal laser scanning microscope (Nikon EZ Cl confocal microscope). All images were captured at 60× magnification and processed under identical conditions with constant parameters (including scan speed and excitation and emission wavelengths) using Nikon EZ Cl software.
# [8] = in vivo
# Description: Pharmacokinetics and CMV inhibition in mice. […] The dosing solution was prepared in saline with a dosing volume of 10 mL/kg. Blood and tissue samples including liver, lung and spleen were collected at 0, 0.083, 0.25, 0.5, 0.75, 1, 2, 3, 4, 7, 24, 30, 48, 72 and 96 hr. […] Pharmacokinetic parameters (Cmax, Tmax, AUC and t1/2) were calculated with a non-compartmental approach using the Pharsight WinNonLin software (Ver. 6.4). The experimental procedures were approved by the Animal Care and Use Committee of Division of Veterinary Resources, NIH.
# [9] = system: HCMV entry; assay: Virus entry immunofluorescence assay for pp65; type: cell-based; conditions: emetine 75 nM, GCV 10 μM, CpG 2006 10 μM; added 24 h prior to infection; dihydrochloride hydrate
# Description: Immunofluorescence. […] Compounds were diluted in serum-free medium and added to HFFs seeded on chamber slides 24 h prior to infection. After infection and treatment, cells were fixed, permeabilized, and air-dried. Cells were then incubated with mouse monoclonal anti-pp65 antibody at 37° C. in humidified chambers for 1 h, washed three times with 0.1% Tween 20 in PBS (PBST), incubated with rhodamine conjugated anti-mouse IgG (Sigma Chemical Co) at 37° C. in humidified chambers for 1 h, and washed with PBST (0.1% Tween 20). A drop of mount oil containing DAPI (4,6-diamidino-2-phenylindole) (Santa Cruz) was added to the slides before visualization with a Nikon Eclipse E-800 fluorescence microscope.
# [10] = system: HSV-2 (clinical isolates); assay: HSV-2 plaque assay in HFFs; type: cell-based, herpes simplex virus 2; conditions: nM concentrations
# Excerpt: as §1
# [11] = system: pp28-luciferase HCMV Towne; assay: Add on and removal studies; type: cell-based, human cytomegalovirus (HCMV); conditions: luciferase at 72 hpi
# Description: Add on and removal studies. […] For time-of-removal studies, the medium containing the compounds was removed at 0, 6, 12, 24, 36 and 48 hpi, cells were washed three times with phosphate-buffered saline (PBS), and drug-free medium was added. Luciferase activity was determined at 72 hpi.
# [12] = Cell viability (MTT) assay; conditions: human, non-infected HFFs
compound,measurement,setting,value
"CC[C@H]1CN2CCc3cc(OC)c(OC)cc3[C@@H]2C[C@@H]1C[C@H]1NCCc2cc(OC)c(OC)cc21 [emetine, emetine dihydrochloride hydrate]",interaction of MDM2 and IE2,[1],significantly decreased
same,inhibition of GCV-resistant HCMV,[2],inhibited
same,inhibition of HCMV by plaque reduction assay,[3],further confirmed
same,reduction in the number and size of plaques,"[3]; 2 million cells/plate (p<0.001) as compared to 0.5 million cells/plate, emetine 75 nM",30 fold
same,combined effect of emetine and GCV on virus inhibition,[4],synergistic virus inhibition
same,treatment of malaria,[5],successful treatment
same,"increase in pp28-luciferase activity, second cycle infection","[6]; 0.5 million cells/plate, p>0.5",1.5 fold
same,"reduction in pp28-luciferase activity, second cycle infection","[6]; 1 million cells/plate, p<0.001",1.5 fold
same,"pp28-luciferase activity, second cycle infection","[6]; 2 million cells/plate, p<0.001",almost complete inhibition
same,RPS14 localization,[7],induced RPS14 translocation into the nucleus
same,Cmax,"[8]; male, BALB/c, mouse, in vivo, 0.1 mg/kg",1.4 ng/mL
same,half-life,"[8]; male, BALB/c, mouse, in vivo, ip, 0.1 mg/kg, half-life, single intraperitoneal administration 0.1 mg/kg, mice",32 h
same,half-life,"[8]; male, BALB/c, mouse, in vivo, po, 1 mg/kg, half-life, single oral administration 1 mg/kg, male BALB/c mice",32 h
same,half-life,"[8]; single oral administration 1 mg/kg, male BALB/c mice, dihydrochloride hydrate, 1 mg/kg",24 h
same,inhibition of viral entry,[9],neither emetine nor GCV inhibited viral entry; also recorded: does not inhibit
same,inhibition of HSV-2,[10],inhibited
same,time of addition after which activity against HCMV replication is lost,[11]; add-on,> 12 h
same,time compound is required to fully inhibit HCMV,[11]; removal assay,at least 24 h
same,CC50 at 72 h,[12],8 µM
